Test results as given in patent US20080009418A1, “Selective Inhibitors” (Alchemia LTD., priority 2004, published 2008).

Legend:
Human μ-opioid (MOP) = biological target: T1, Human μ-opioid (MOP) (Homo sapiens, UniProt P35372); experiment: Radioligand binding, human μ-opioid (MOP) membranes, FlashPlate, [3H]-Naloxone; conditions: compound at 10 μM; [3H]-Naloxone
T1 construct: purchased Perkin Elmer Biosignal
Outline: (§1)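 Cloned human receptor membranes were coated onto FlashPlate wells and incubated with radioligand and compound (added from a 0.5 mM DMSO daughter plate) for 1 hour at room temperature in the dark. Scintillation counting gave percent inhibition, with DMSO defining total and reference ligand defining non-specific binding.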

[1] = biological target: T2, Human neuropeptide Y (NPY-Y1) (Homo sapiens, UniProt P25929); experiment: Radioligand binding, human neuropeptide Y NPY-Y1 membranes, FlashPlate, [125I]-PYY; conditions: compound at 10 μM; [125I]-PYY
T2 construct: purchased Perkin Elmer Biosignal
T2 sequence (P25929 1-384): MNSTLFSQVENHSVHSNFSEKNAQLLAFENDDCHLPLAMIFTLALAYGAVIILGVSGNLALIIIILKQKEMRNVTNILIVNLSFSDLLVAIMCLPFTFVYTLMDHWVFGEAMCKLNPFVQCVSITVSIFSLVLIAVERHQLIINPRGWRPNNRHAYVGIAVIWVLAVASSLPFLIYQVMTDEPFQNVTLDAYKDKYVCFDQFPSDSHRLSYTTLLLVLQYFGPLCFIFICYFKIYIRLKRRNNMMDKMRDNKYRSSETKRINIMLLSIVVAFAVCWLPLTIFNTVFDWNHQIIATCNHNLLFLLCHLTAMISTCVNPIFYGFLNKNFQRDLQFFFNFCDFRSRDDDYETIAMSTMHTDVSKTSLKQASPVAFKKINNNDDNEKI
Outline: as §1

Human δ-opioid (DOP) = biological target: T3, Human δ-opioid (DOP) (Homo sapiens, UniProt P41143); experiment: Radioligand binding, human δ-opioid (DOP) membranes, FlashPlate, [3H]-Bremazocine; conditions: compound at 10 μM; [3H]-Bremazocine
T3 construct: purchased Perkin Elmer Biosignal
T3 sequence (P41143 whole entry): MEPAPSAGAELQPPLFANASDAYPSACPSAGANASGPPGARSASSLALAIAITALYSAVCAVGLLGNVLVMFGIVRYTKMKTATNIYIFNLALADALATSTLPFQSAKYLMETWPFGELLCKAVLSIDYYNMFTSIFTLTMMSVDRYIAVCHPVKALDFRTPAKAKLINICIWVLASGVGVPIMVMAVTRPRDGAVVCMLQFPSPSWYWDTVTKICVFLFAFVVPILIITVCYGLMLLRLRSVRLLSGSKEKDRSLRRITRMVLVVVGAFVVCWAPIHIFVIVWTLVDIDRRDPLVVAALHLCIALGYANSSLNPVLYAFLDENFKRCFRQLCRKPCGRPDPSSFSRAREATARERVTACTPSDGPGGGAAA
Outline: as §1

Human Melanocortin (MC3) = biological target: T4, Human Melanocortin (MC3) (Homo sapiens, UniProt P41968); experiment: Radioligand binding, human melanocortin MC3 membranes, FlashPlate, [125I]-NDP-αMSH; conditions: compound at 10 μM; [125I]-NDP-αMSH
T4 construct: purchased Perkin Elmer Biosignal
T4 sequence (P41968 whole entry): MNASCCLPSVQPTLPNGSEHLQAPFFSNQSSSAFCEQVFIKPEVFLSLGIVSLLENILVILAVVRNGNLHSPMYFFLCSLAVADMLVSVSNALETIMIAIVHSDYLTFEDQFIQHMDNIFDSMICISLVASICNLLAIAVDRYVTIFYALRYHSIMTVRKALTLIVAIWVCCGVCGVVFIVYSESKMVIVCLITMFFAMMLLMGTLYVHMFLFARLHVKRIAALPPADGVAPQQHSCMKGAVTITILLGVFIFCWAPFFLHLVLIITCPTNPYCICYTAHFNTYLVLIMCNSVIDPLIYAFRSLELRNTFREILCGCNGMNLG
Outline: as §1

Human opioid (ORL1) = biological target: T5, Human opioid (ORL1) (Homo sapiens, UniProt P41146); experiment: Radioligand binding, human opioid ORL1 membranes, FlashPlate, [125I]-Nociceptin; conditions: compound at 10 μM; [125I]-Nociceptin
T5 construct: purchased Perkin Elmer Biosignal
T5 sequence (P41146 whole entry): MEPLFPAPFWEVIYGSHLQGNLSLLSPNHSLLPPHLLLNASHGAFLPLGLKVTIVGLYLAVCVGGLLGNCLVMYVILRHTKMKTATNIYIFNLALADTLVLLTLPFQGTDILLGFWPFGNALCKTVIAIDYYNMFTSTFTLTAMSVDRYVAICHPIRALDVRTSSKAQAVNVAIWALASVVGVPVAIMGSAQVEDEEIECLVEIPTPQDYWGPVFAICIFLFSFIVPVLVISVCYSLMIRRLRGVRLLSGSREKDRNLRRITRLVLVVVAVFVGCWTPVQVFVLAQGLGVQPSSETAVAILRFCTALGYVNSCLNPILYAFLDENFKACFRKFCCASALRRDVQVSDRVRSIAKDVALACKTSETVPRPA
Outline: as §1

Human κ-Opioid (KOP) = biological target: T6, Human κ-Opioid (KOP) (Homo sapiens, UniProt P41145); experiment: Radioligand binding, human κ-opioid (KOP) membranes, filtration, [3H]-Diprenorphine; conditions: compound at 10 μM; [3H]-Diprenorphine
T6 construct: purchased Perkin Elmer Biosignal
T6 sequence (P41145 whole entry): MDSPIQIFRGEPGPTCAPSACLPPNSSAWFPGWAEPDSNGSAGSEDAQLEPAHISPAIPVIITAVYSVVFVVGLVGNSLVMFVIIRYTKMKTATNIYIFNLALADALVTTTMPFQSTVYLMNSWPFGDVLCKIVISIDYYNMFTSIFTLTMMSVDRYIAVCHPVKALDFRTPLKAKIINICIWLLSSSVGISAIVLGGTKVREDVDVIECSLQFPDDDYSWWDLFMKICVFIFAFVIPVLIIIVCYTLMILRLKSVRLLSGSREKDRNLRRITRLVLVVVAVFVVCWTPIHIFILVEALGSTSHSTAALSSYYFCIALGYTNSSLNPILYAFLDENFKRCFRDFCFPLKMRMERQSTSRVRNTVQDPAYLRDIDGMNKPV
Outline: (§2)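 Membranes from cloned human receptors were incubated with compound and radioligand for 1 hour at room temperature. Bound ligand was collected on 0.3% PEI-soaked filters, washed with cold 50 mM Tris-HCl pH 7.4, and counted by scintillation. Percent inhibition was computed against DMSO totals and reference-ligand nonspecific wells.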

Human Melanocortin (MC4) = biological target: T7, Human Melanocortin (MC4) (Homo sapiens, UniProt P32245); experiment: Radioligand binding, human melanocortin MC4 membranes, FlashPlate, [125I]-NDP-αMSH; conditions: compound at 10 μM; [125I]-NDP-αMSH
T7 construct: purchased Perkin Elmer Biosignal
T7 sequence (P32245 whole entry): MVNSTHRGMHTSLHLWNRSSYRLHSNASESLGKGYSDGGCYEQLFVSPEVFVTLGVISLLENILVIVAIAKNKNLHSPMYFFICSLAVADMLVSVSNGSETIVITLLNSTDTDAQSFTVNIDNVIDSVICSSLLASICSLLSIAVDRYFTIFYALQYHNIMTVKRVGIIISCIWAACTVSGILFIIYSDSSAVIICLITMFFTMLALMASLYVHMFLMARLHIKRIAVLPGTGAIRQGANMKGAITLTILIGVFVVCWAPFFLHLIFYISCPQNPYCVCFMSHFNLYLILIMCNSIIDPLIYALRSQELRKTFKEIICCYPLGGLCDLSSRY
Outline: as §1

Mouse urotensin (mUR2) = biological target: T8, Mouse urotensin (mUR2) (Mus musculus, UniProt Q8VIH9); experiment: Radioligand binding, mouse urotensin mUR2 membranes, FlashPlate, [125I]-Urotensin II; conditions: compound at 10 μM; [125I]-Urotensin II
T8 construct: purchased Perkin Elmer Biosignal
T8 sequence (Q8VIH9 1-385): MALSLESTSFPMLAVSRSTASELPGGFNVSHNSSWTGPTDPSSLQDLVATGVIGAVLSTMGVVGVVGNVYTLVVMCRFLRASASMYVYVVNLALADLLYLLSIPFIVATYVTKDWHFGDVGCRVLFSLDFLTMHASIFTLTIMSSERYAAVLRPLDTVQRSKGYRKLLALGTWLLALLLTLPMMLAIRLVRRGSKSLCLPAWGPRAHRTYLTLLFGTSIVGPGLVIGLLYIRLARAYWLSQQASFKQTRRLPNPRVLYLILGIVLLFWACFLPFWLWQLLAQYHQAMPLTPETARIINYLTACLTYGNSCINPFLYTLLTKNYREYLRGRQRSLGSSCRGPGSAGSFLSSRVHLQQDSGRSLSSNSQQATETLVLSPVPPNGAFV
Outline: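 Cloned mouse urotensin (mUR2) receptor membranes from Perkin Elmer Biosignal were immobilized in FlashPlate microplates using a proprietary coating. Each well got 19.5 μl buffer, then 0.5 μl of DMSO, reference ligand, or compound. Adding 5 μl of [125I]-Urotensin II, diluted to 5× final concentration in binding buffer, started binding. Plates were sealed with TopSeal-A and incubated 1 hour at room temperature in the dark. Wells were counted for 30 seconds each on a TopCount after a 60-second delay, and percentage inhibition was calculated.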

Human melanocortin (MC5) = biological target: T9, Human melanocortin (MC5) (Homo sapiens, UniProt P33032); experiment: Radioligand binding, human melanocortin MC5 membranes, FlashPlate, [125I]-NDP-αMSH; conditions: compound at 10 μM; [125I]-NDP-αMSH
T9 construct: purchased Perkin Elmer Biosignal
T9 sequence (P33032 whole entry): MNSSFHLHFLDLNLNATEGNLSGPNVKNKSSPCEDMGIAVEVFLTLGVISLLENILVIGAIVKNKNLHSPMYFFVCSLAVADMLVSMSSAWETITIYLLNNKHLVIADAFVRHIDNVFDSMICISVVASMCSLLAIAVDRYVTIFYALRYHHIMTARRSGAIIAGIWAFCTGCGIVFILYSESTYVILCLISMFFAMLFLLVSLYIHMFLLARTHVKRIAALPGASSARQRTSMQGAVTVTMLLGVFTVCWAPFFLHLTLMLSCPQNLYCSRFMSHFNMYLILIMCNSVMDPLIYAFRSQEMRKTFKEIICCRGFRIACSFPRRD
Outline: as §1

[2] = biological target: T10, Human melanin-concentrating hormone (MCH1) (Homo sapiens, UniProt Q99705); experiment: Radioligand binding, human melanin-concentrating hormone MCH1 membranes, FlashPlate, [125I]-S36057; conditions: compound at 10 μM; [125I]-S36057
T10 construct: purchased Perkin Elmer Biosignal
T10 sequence (Q99705 whole entry): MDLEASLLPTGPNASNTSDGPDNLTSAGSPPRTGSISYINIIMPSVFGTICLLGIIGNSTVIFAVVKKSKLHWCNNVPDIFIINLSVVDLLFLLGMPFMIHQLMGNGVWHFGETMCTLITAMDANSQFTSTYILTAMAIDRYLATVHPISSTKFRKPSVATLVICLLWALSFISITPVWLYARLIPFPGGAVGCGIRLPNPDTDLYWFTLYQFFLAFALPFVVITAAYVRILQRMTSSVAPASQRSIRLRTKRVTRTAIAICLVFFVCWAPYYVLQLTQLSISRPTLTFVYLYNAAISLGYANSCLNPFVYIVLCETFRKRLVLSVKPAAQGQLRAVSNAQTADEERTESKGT
Outline: as §1

Human neurokinin (NK1) = biological target: T11, Human neurokinin (NK1) (Homo sapiens, UniProt P25103); experiment: Radioligand binding, human neurokinin NK1 membranes, filtration, [125I]-Substance P; conditions: compound at 10 μM; [125I]-Substance P
T11 construct: purchased Perkin Elmer Biosignal
T11 sequence (P25103 whole entry): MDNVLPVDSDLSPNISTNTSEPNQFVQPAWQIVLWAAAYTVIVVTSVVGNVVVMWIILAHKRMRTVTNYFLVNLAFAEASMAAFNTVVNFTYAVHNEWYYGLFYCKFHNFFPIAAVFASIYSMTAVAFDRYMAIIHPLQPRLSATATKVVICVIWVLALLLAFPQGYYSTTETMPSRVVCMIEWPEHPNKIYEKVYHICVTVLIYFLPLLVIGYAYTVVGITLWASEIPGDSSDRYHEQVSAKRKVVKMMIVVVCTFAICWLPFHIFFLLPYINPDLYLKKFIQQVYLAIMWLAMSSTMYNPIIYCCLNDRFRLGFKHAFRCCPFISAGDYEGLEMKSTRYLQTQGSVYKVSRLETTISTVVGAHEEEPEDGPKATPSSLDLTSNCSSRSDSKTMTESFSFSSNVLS
Outline: as §2

T1 sequence (P35372 whole entry): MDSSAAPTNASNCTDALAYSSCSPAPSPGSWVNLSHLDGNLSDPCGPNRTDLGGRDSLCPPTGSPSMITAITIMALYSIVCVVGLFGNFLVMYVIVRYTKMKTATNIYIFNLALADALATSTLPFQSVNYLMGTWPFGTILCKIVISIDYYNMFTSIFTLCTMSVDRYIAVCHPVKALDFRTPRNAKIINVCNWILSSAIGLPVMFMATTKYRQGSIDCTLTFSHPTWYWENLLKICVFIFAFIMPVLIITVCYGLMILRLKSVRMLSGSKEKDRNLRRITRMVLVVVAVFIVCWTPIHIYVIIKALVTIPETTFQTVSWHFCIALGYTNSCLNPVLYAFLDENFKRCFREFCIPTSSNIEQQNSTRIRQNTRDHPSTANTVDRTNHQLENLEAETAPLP

Row | SMILES | A7: inhibition of radioligand binding, human μ-opioid (MOP) (Human μ-opioid (MOP)) | A9: inhibition of radioligand binding, human neuropeptide Y (NPY-Y1) [1] | A1: inhibition of radioligand binding, human δ-opioid (DOP) (Human δ-opioid (DOP)) | A3: inhibition of radioligand binding, human melanocortin (MC3) (Human Melanocortin (MC3)) | A10: inhibition of radioligand binding, human opioid (ORL1) (Human opioid (ORL1)) | A2: inhibition of radioligand binding, human κ-opioid (KOP) (Human κ-Opioid (KOP)) | A4: inhibition of radioligand binding, human melanocortin (MC4) (Human Melanocortin (MC4)) | A11: inhibition of radioligand binding, mouse urotensin (mUR2) (Mouse urotensin (mUR2)) | A5: inhibition of radioligand binding, human melanocortin (MC5) (Human melanocortin (MC5)) | A6: inhibition of radioligand binding, human melanin-concentrating hormone (MCH1) [2] | A8: inhibition of radioligand binding, human neurokinin (NK1) (Human neurokinin (NK1))
1 | NCC1CCC(C(=O)NC2O[C@H](CO)[C@@H](O)[C@H](OCc3ccc(Cl)cc3)[C@H]2NC(=O)c2ccccc2)CC1 (stereo partly shown) [compound 361] | − (“−” indicates less than 50% inhibition at 10 μM) | − (“−” indicates less than 50% inhibition at 10 μM) | − (“−” indicates less than 50% inhibition at 10 μM) | − (“−” indicates less than 50% inhibition at 10 μM) | − (“−” indicates less than 50% inhibition at 10 μM) | − (“−” indicates less than 50% inhibition at 10 μM) | + (“+” indicates greater than 50% inhibition at 10 μM) | − (“−” indicates less than 50% inhibition at 10 μM) | − (“−” indicates less than 50% inhibition at 10 μM) | − (“−” indicates less than 50% inhibition at 10 μM) | − (“−” indicates less than 50% inhibition at 10 μM)
2 | NCC1CCC(C(=O)NC2O[C@H](CO)[C@@H](O)[C@H](OCc3cccc4ccccc34)[C@H]2NC(=O)c2ccccc2)CC1 (stereo partly shown) [compound 362] | − (“−” indicates less than 50% inhibition at 10 μM) | − (“−” indicates less than 50% inhibition at 10 μM) | − (“−” indicates less than 50% inhibition at 10 μM) | − (“−” indicates less than 50% inhibition at 10 μM) | − (“−” indicates less than 50% inhibition at 10 μM) | − (“−” indicates less than 50% inhibition at 10 μM) | − (“−” indicates less than 50% inhibition at 10 μM) | − (“−” indicates less than 50% inhibition at 10 μM) | − (“−” indicates less than 50% inhibition at 10 μM) | − (“−” indicates less than 50% inhibition at 10 μM) | + (“+” indicates greater than 50% inhibition at 10 μM)
3 | O=C(N[C@H]1C(NC(=O)C2CCNCC2)O[C@H](CO)[C@@H](O)[C@@H]1OCc1cccc2ccccc12)c1ccccc1 (stereo partly shown) [compound 363] | − (“−” indicates less than 50% inhibition at 10 μM) | − (“−” indicates less than 50% inhibition at 10 μM) | − (“−” indicates less than 50% inhibition at 10 μM) | − (“−” indicates less than 50% inhibition at 10 μM) | − (“−” indicates less than 50% inhibition at 10 μM) | − (“−” indicates less than 50% inhibition at 10 μM) | − (“−” indicates less than 50% inhibition at 10 μM) | − (“−” indicates less than 50% inhibition at 10 μM) | − (“−” indicates less than 50% inhibition at 10 μM) | − (“−” indicates less than 50% inhibition at 10 μM) | + (“+” indicates greater than 50% inhibition at 10 μM)
4 | NCCC(=O)NC1C(OCc2ccccc2)OC(COCc2ccc3ccccc3c2)C(O)C1OCc1ccc(Cl)cc1 (stereo not shown) [compound 364] | − (“−” indicates less than 50% inhibition at 10 μM) | − (“−” indicates less than 50% inhibition at 10 μM) | − (“−” indicates less than 50% inhibition at 10 μM) | + (“+” indicates greater than 50% inhibition at 10 μM) | − (“−” indicates less than 50% inhibition at 10 μM) | − (“−” indicates less than 50% inhibition at 10 μM) | + (“+” indicates greater than 50% inhibition at 10 μM) | − (“−” indicates less than 50% inhibition at 10 μM) | + (“+” indicates greater than 50% inhibition at 10 μM) | − (“−” indicates less than 50% inhibition at 10 μM) | + (“+” indicates greater than 50% inhibition at 10 μM)
5 | NCCC(=O)NC1C(OCc2ccccc2)OC(COCc2ccccc2)C(O)C1OCc1ccc(Cl)cc1 (stereo not shown) [compound 365] | − (“−” indicates less than 50% inhibition at 10 μM) | − (“−” indicates less than 50% inhibition at 10 μM) | − (“−” indicates less than 50% inhibition at 10 μM) | − (“−” indicates less than 50% inhibition at 10 μM) | − (“−” indicates less than 50% inhibition at 10 μM) | − (“−” indicates less than 50% inhibition at 10 μM) | − (“−” indicates less than 50% inhibition at 10 μM) | − (“−” indicates less than 50% inhibition at 10 μM) | − (“−” indicates less than 50% inhibition at 10 μM) | − (“−” indicates less than 50% inhibition at 10 μM) | + (“+” indicates greater than 50% inhibition at 10 μM)
